Experimental data: publication PMC7930822, “Phase I Trial to Evaluate the Tolerance, Pharmacokinetics and Efficacy of the Broad-Spectrum ErbB Family Inhibitor Larotinib Mesylate in Patients With Advanced Solid Tumors” (Frontiers in Pharmacology, 2021)
Counter-ions that a name gives are not always drawn. Like-named read-outs stand apart in the source and are kept apart here.

Assay: phase I plasma pharmacokinetics (non-compartmental, LC-MS/MS)
Format: in vivo, human
Conditions: plasma, plasma; for Tmax / Vd/F / AUC(0-t) / AUC(0-inf) / Cmax / half-life / AUC: human; for Tmax / Vd/F / AUC(0-t) / AUC(0-inf) / Cmax / half-life: po; for AUC: read-out: AUCτ,ss, mean (min–max)
Protocol: This was a phase I, single-center, open-label, dose-escalation study conducted at First Hospital of Jilin University, China (registration no.: ChiCTR-OPC-15007153 registered at http://www.chictr.org.cn). Larotinib mesylate hard capsules were produced and supplied by Sunshine Lake Pharma Co., Ltd (Guangdong Province, China) in different unit doses of […] under GMP condition. Seven dose levels were designed in the study: 50, 100, 150, 220, 300, 350, and 400 mg with administration stages labeled cycle 0, cycle 1, and subsequent treatment cycles. Patients received an oral single dose of larotinib mesylate after fasting during a 6-days cycle 0 to evaluate the tolerance and pharmacokinetic characteristics. After cycle 0, larotinib mesylate was continuously administered once daily for 28 days in cycle 1, and the tolerance and pharmacokinetic characteristics of multiple doses were evaluated (Figure 2). The patients who […] disease control (complete response [CR], partial response [PR], or stable disease [SD]) at the end of cycle one were permitted to participate in the subsequent 28-days treatment cycles until progressive disease (PD) or intolerance was observed.
Blood samples (4 ml) for pharmacokinetic analyses were collected in tubes containing K2EDTA anticoagulant. Blood samples were centrifuged at 3,000 rpm for 10 min at 4°C and stored at –80°C until liquid chromatography-mass spectrophotometry (LC-MS/MS) analysis. Urine and fecal samples were collected only when patients were given the150-mg and 220-mg dose levels at sampling time intervals of 0–4, 4–8, 8–12, 12–24, 24–48, 48–72, 72–96 and 96–120 h in cycle 0.
Linear mixed effects model was used to explore the dose exposure relationships. Dose proportionality was concluded if the 95% confidence interval (CI) of the linear regression slope was completely contained within the decision interval (1 + ln (0.8)/ln (8)∼1 + ln (1.25)/ln (8)). For urine and fecal data, the accumulative excretion rates of larotinib and M5 were calculated.
Bioanalysis was performed at Frontage Company (Shanghai, China). Validated high-performance LC-MS/MS method was used to quantify the concentrations of larotinib and M5 in plasma, urine and feces samples. Protein precipitation was employed for plasma, urine and feces processing. Plasma larotinib and M5 concentrations were determined using appropriate calibration curves obtained from standards in the range of 0.5–1,000 ng/ml. The interassay precision of the analysis method were 4.2–5.4% for larotinib and 3.9–4.3% for M5. The interassay accuracy of the analysis method were 100.4–103.4% for larotinib and 102.2–102.9% for M5, respectively.
Statistical analyses were performed using SAS software, version 9.2 (SAS Institute Inc., United States). Descriptive statistics were used to summarize continuous variables as cases, means with standard deviations (SDs), medians, quartiles, maximums and minimums. For categorical variables, frequencies and percentages were used. A linear mixed effects model, relating log-transformed Cmax and AUC parameters to log-transformed dose, was used to investigate dose proportionality.

[1] = multiple oral administration, 50 mg larotinib mesylate, steady state
[2] = multiple oral administration, 100 mg larotinib mesylate, steady state
[3] = multiple oral administration, 150 mg larotinib mesylate, steady state
[4] = multiple oral administration, 220 mg larotinib mesylate, steady state
[5] = multiple oral administration, 300 mg larotinib mesylate, steady state
[6] = multiple oral administration, 350 mg larotinib mesylate, steady state
[7] = multiple oral administration, 400 mg larotinib mesylate, steady state

COc1cc2ncnc(Nc3ccc(F)c(Cl)c3)c2cc1OCCCN1C[C@@H]2OCCO[C@@H]2C1 [larotinib mesylate] gave a Tmax (300 mg, multiple oral administration, 300 mg larotinib mesylate, steady state, read-out: Tmax,ss, median (min–max)) of 5 h, a Vd/F (300 mg, multiple oral administration, 300 mg larotinib mesylate, steady state, read-out: Vz/F,ss, mean (min–max)) of 1060 L and an AUC(0-t) (300 mg, single oral administration, 300 mg larotinib mesylate, read-out: AUC0-24, mean (min–max)) of 2690 ng·h/mL. The AUC(0-t) (300 mg, single oral administration, 300 mg larotinib mesylate, read-out: AUC0-t, mean (min–max)) was 4880 ng·h/mL, the AUC(0-inf) (300 mg, single oral administration, 300 mg larotinib mesylate, read-out: AUC0-∞, mean (min–max)) was 5550 ng·h/mL and the Cmax (300 mg, single oral administration, 300 mg larotinib mesylate, read-out: Cmax, mean (min–max)) was 267 ng/mL. For the same molecule, the half-life (300 mg, single oral administration, 300 mg larotinib mesylate, read-out: T1/2, mean (min–max) (converted)) was 46.2 h, the Tmax (300 mg, single oral administration, 300 mg larotinib mesylate, read-out: Tmax, median (min–max)) was 5 h and the Vd/F (300 mg, single oral administration, 300 mg larotinib mesylate, read-out: Vz/F, mean (min–max)) was 4340 L. For the same molecule, the AUC(0-t) (350 mg, multiple oral administration, 350 mg larotinib mesylate, steady state, read-out: AUC0-t,ss, mean (min–max)) was 35900 ng·h/mL, the AUC(0-inf) (350 mg, multiple oral administration, 350 mg larotinib mesylate, steady state, read-out: AUC0-∞,ss, mean (min–max)) was 47300 ng·h/mL and the Cmax (350 mg, multiple oral administration, 350 mg larotinib mesylate, steady state, read-out: Cmax,ss, mean (min–max)) was 695 ng/mL. The half-life (350 mg, multiple oral administration, 350 mg larotinib mesylate, steady state, read-out: T1/2,ss, mean (min–max) (converted)) was 58.6 h, the Tmax (350 mg, multiple oral administration, 350 mg larotinib mesylate, steady state, read-out: Tmax,ss, median (min–max)) was 5 h and the Vd/F (350 mg, multiple oral administration, 350 mg larotinib mesylate, steady state, read-out: Vz/F,ss, mean (min–max)) was 641 L. The AUC(0-t) (350 mg, single oral administration, 350 mg larotinib mesylate, read-out: AUC0-24, mean (min–max)) was 3240 ng·h/mL, the AUC(0-t) (350 mg, single oral administration, 350 mg larotinib mesylate, read-out: AUC0-t, mean (min–max)) was 6120 ng·h/mL and the AUC(0-inf) (350 mg, single oral administration, 350 mg larotinib mesylate, read-out: AUC0-∞, mean (min–max)) was 6830 ng·h/mL. The Cmax (350 mg, single oral administration, 350 mg larotinib mesylate, read-out: Cmax, mean (min–max)) was 300 ng/mL, the half-life (350 mg, single oral administration, 350 mg larotinib mesylate, read-out: T1/2, mean (min–max) (converted)) was 44.6 h and the Tmax (350 mg, single oral administration, 350 mg larotinib mesylate, read-out: Tmax, median (min–max)) was 3.5 h. It also gave a Vd/F (350 mg, single oral administration, 350 mg larotinib mesylate, read-out: Vz/F, mean (min–max)) of 3800 L, an AUC(0-t) (400 mg, multiple oral administration, 400 mg larotinib mesylate, steady state, read-out: AUC0-t,ss, mean (min–max)) of 45000 ng·h/mL and an AUC(0-inf) (400 mg, multiple oral administration, 400 mg larotinib mesylate, steady state, read-out: AUC0-∞,ss, mean (min–max)) of 70400 ng·h/mL. The Cmax (400 mg, multiple oral administration, 400 mg larotinib mesylate, steady state, read-out: Cmax,ss, mean (min–max)) was 845 ng/mL, the half-life (400 mg, multiple oral administration, 400 mg larotinib mesylate, steady state, read-out: T1/2,ss, mean (min–max) (converted)) was 87 h and the Tmax (400 mg, multiple oral administration, 400 mg larotinib mesylate, steady state, read-out: Tmax,ss, median (min–max)) was 6 h. The Vd/F (400 mg, multiple oral administration, 400 mg larotinib mesylate, steady state, read-out: Vz/F,ss, mean (min–max)) was 754 L, the AUC(0-t) (400 mg, single oral administration, 400 mg larotinib mesylate, read-out: AUC0-24, mean (min–max)) was 3970 ng·h/mL and the AUC(0-t) (400 mg, single oral administration, 400 mg larotinib mesylate, read-out: AUC0-t, mean (min–max)) was 7440 ng·h/mL. It also gave an AUC(0-inf) (400 mg, single oral administration, 400 mg larotinib mesylate, read-out: AUC0-∞, mean (min–max)) of 9090 ng·h/mL, a Cmax (400 mg, single oral administration, 400 mg larotinib mesylate, read-out: Cmax, mean (min–max)) of 354 ng/mL and a half-life (400 mg, single oral administration, 400 mg larotinib mesylate, read-out: T1/2, mean (min–max) (converted)) of 68.6 h. The Tmax (400 mg, single oral administration, 400 mg larotinib mesylate, read-out: Tmax, median (min–max)) was 5 h, the Vd/F (400 mg, single oral administration, 400 mg larotinib mesylate, read-out: Vz/F, mean (min–max)) was 7410 L and the half-life (single oral dose, across 50–400 mg, read-out: mean t1/2) was 39.3 to 68.6 h. The Tmax (single oral dose, across 50–400 mg, read-out: median Tmax) was 3.5 to 6 h, the AUC [1] was 1220 ng·h/mL and the AUC [2] was 1970 ng·h/mL. It also gave an AUC [3] of 6500 ng·h/mL, an AUC [4] of 10300 ng·h/mL and an AUC [5] of 7260 ng·h/mL. For the same molecule, the AUC [6] was 13200 ng·h/mL, the AUC [7] was 16100 ng·h/mL and the “CL/F,ss, mean (min–max)” value [1] was 10.73 (7.513–12.58) L/h. The “CL/F,ss, mean (min–max)” value [2] was 21.17 (13.80–29.53) L/h, the “CL/F,ss, mean (min–max)” value [3] was 6.512 (4.414–7.565) L/h and the “CL/F,ss, mean (min–max)” value [4] was 5.126 (4.592–6.098) L/h. The “CL/F,ss, mean (min–max)” value [5] was 13.91 (10.58–18.36) L/h, the “CL/F,ss, mean (min–max)” value [6] was 7.648 (5.819–8.842) L/h and the “CL/F,ss, mean (min–max)” value [7] was 6.087 (4.160–7.894) L/h. For the same molecule, the “CL/F, mean (min–max)” value (single oral administration, 50 mg larotinib mesylate) was 62.01 (54.17–71.3) L/h, the “CL/F, mean (min–max)” value (single oral administration, 100 mg larotinib mesylate) was 73.81 (62.61–90.83) L/h and the “CL/F, mean (min–max)” value (single oral administration, 150 mg larotinib mesylate) was 29.11 (18.30–38.09) L/h. For the same molecule, the “CL/F, mean (min–max)” value (single oral administration, 220 mg larotinib mesylate) was 27.79 (24.27–33.83) L/h, the “CL/F, mean (min–max)” value (single oral administration, 300 mg larotinib mesylate) was 63.76 (30.15–116.4) L/h and the “CL/F, mean (min–max)” value (single oral administration, 350 mg larotinib mesylate) was 55.78 (36.19–73.27) L/h. The “CL/F, mean (min–max)” value (single oral administration, 400 mg larotinib mesylate) was 70.47 (29.90–145.6) L/h.
